Reference: ChEMBL document CHEMBL1201862, “PubChem BioAssay data set” (2004)
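Cultured in 96-well plates, cells were exposed to test compound for 48 hours across five concentrations. Here, GI50 denotes the concentration required for 50% inhibition of growth.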 Calls of active or inactive are those of the source. Rule as the data show it: active = GI50 up to about 1.1 µM and inactive = higher.

Tests used:
Experiment in all cases: DTP human tumour cell line panel, 48 h
[1] = tested on: A549
[2] = tested on: CCRF-CEM
[3] = tested on: OVCAR-5
[4] = tested on: TK-10
[5] = tested on: HCT-15
[6] = tested on: SF-295
[7] = tested on: HCT-116
[8] = tested on: KM12
[9] = tested on: UACC-257
[10] = tested on: HL-60
[11] = tested on: SK-MEL-28
[12] = tested on: BT-549
[13] = tested on: SW-620
[14] = tested on: SR
[15] = tested on: DU-145
[16] = tested on: NCI/ADR-RES
[17] = tested on: MDA-MB-435
[18] = tested on: MOLT-4
[19] = tested on: NCI-H460
[20] = tested on: PC-3
[21] = tested on: K562
[22] = tested on: SK-OV-3
[23] = tested on: OVCAR-3
[24] = tested on: SK-MEL-2
[25] = tested on: 786-0
[26] = tested on: HOP-92
[27] = tested on: ACHN
[28] = tested on: CAKI-1
[29] = tested on: SF-268
[30] = tested on: M14
[31] = tested on: MCF7
[32] = tested on: EKVX
[33] = tested on: Hs-578T
[34] = tested on: UO-31
[35] = tested on: RPMI-8226
[36] = tested on: IGROV-1
[37] = tested on: NCI-H226
[38] = tested on: HT-29
[39] = tested on: SN12C
[40] = tested on: SK-MEL-5
[41] = tested on: OVCAR-4
[42] = tested on: COLO 205
[43] = tested on: HCC 2998
[44] = tested on: LOX IMVI
[45] = tested on: MDA-MB-231
[46] = tested on: U-251
[47] = tested on: MDA-N
[48] = tested on: SF-539
[49] = tested on: NCI-H522
[50] = tested on: NCI-H23
[51] = tested on: OVCAR-8
[52] = tested on: HOP-62
[53] = tested on: SNB-19
[54] = tested on: SNB-75
[55] = tested on: RXF 393
[56] = tested on: Malme-3M
[57] = tested on: A498
[58] = tested on: UACC-62
[59] = tested on: T47D

Measured: GI50

CC1CCOc2ccc(cc2)/C=N\c2ccc(cc2)-c2ccc(cc2)/N=C\c2ccc(cc2)OCC1
inactive: [1] > 100 µM | [2] > 100 µM | [3] > 100 µM | [4] > 100 µM | [6] > 100 µM | [7] > 100 µM | [8] > 100 µM | [9] > 100 µM | [10] > 100 µM | [11] > 100 µM | [12] > 100 µM | [13] > 100 µM | [14] > 100 µM | [15] > 100 µM | [16] > 100 µM | [17] > 100 µM | [18] > 100 µM | [19] > 100 µM | [20] > 100 µM | [21] > 100 µM | [22] > 100 µM | [23] > 100 µM | [24] > 100 µM | [25] > 100 µM | [26] > 100 µM | [27] > 100 µM | [28] > 100 µM | [29] > 100 µM | [30] > 100 µM | [31] > 100 µM | [32] > 100 µM | [33] > 100 µM | [34] > 100 µM | [35] > 100 µM | [36] > 100 µM | [37] > 100 µM | [38] > 100 µM | [39] > 100 µM | [40] > 100 µM | [41] > 100 µM | [42] > 100 µM | [43] > 100 µM | [44] > 100 µM | [45] > 100 µM | [46] > 100 µM | [47] > 100 µM | [48] > 100 µM | [49] > 100 µM | [50] > 100 µM | [51] > 100 µM
> 100 µM: [5]

CCOC(=O)c1nc2c(Cl)c3ncccc3cc2[nH]c1=O
inactive: [1] 28.4 µM | [2] 17.5 µM | [3] 61.7 µM | [4] > 100 µM | [6] 22.8 µM | [7] 31.8 µM | [8] 31.6 µM | [9] 46.7 µM | [10] 14.2 µM | [11] 59.3 µM | [12] 21.5 µM | [13] 43.3 µM | [14] 8.73 µM | [15] > 100 µM | [16] 30.1 µM | [17] 32.1 µM | [18] 10.4 µM | [52] 25.6 µM | [19] 16.8 µM | [53] 48.1 µM | [54] 17.2 µM | [20] 30.9 µM | [21] 26.1 µM | [22] > 100 µM | [23] 26.2 µM | [24] 22.4 µM | [25] 35.6 µM | [26] 40.6 µM | [55] 55 µM | [27] 95.7 µM | [28] 66.5 µM | [29] 44.6 µM | [30] 27.9 µM | [31] 30.3 µM | [32] 9.08 µM | [33] 31.7 µM | [34] 55.5 µM | [36] 53.5 µM | [37] 6.71 µM | [38] 38 µM | [56] > 100 µM | [40] 9.04 µM | [41] 49.1 µM | [42] > 100 µM | [57] 79.6 µM | [43] 19.6 µM | [45] 18.1 µM | [46] 23 µM | [48] 34.8 µM | [49] 34.4 µM | [50] 29.3 µM | [51] 29.9 µM | [58] 14.6 µM
19 µM: [5]

COC(=O)c1ccc(COC(=O)N2C=CCC2C(=O)O)cc1 (centres undefined)
> 100 µM: [5]
inactive: [1] > 100 µM | [3] > 100 µM | [4] > 100 µM | [6] > 100 µM | [8] > 100 µM | [9] > 100 µM | [11] > 100 µM | [12] > 100 µM | [13] > 100 µM | [14] > 100 µM | [15] > 100 µM | [16] > 100 µM | [17] > 100 µM | [18] > 100 µM | [52] > 100 µM | [19] > 100 µM | [53] > 100 µM | [54] > 100 µM | [20] > 100 µM | [21] > 100 µM | [22] > 100 µM | [23] > 100 µM | [24] > 100 µM | [25] > 100 µM | [26] 63 µM | [55] > 100 µM | [27] > 100 µM | [28] > 100 µM | [29] > 100 µM | [30] > 100 µM | [31] > 100 µM | [33] > 100 µM | [34] > 100 µM | [35] > 100 µM | [36] > 100 µM | [37] > 100 µM | [38] > 100 µM | [39] > 100 µM | [56] > 100 µM | [40] > 100 µM | [42] > 100 µM | [43] > 100 µM | [45] > 100 µM | [46] > 100 µM | [47] > 100 µM | [48] > 100 µM | [49] > 100 µM | [50] > 100 µM | [51] > 100 µM | [58] > 100 µM

N#Cc1nc(CCC(c2nc(C#N)c(N)o2)N2C(=O)c3ccccc3C2=O)oc1N (centres undefined)
active: [14] < 0.01 µM
inactive: [1] > 100 µM | [2] > 10 µM | [3] > 100 µM | [4] > 100 µM | [6] > 100 µM | [7] > 100 µM | [8] > 100 µM | [9] > 100 µM | [10] > 100 µM | [11] > 100 µM | [13] > 100 µM | [15] > 100 µM | [16] > 100 µM | [17] > 100 µM | [18] 27.8 µM | [52] > 100 µM | [19] > 100 µM | [53] > 100 µM | [54] > 100 µM | [20] > 100 µM | [21] 32.8 µM | [22] > 100 µM | [23] > 100 µM | [24] > 100 µM | [25] > 100 µM | [26] > 100 µM | [55] > 100 µM | [27] > 100 µM | [28] > 100 µM | [29] > 100 µM | [59] > 100 µM | [30] > 100 µM | [31] > 100 µM | [32] > 100 µM | [33] > 100 µM | [34] > 100 µM | [35] > 100 µM | [36] > 100 µM | [37] > 100 µM | [38] > 100 µM | [39] > 100 µM | [56] > 100 µM | [40] > 100 µM | [41] 67.6 µM | [42] > 100 µM | [57] > 100 µM | [43] > 100 µM | [44] > 100 µM | [45] > 100 µM | [46] > 100 µM | [47] > 100 µM | [48] > 100 µM | [49] > 100 µM | [50] > 100 µM | [58] > 100 µM
> 100 µM: [5]

CSc1n[nH]c2c1c(C)nn2-c1ccccc1
inactive: [1] > 100 µM | [3] > 100 µM | [4] > 100 µM | [9] > 100 µM | [10] 71.3 µM | [11] > 100 µM | [12] > 100 µM | [13] > 100 µM | [14] > 100 µM | [17] > 100 µM | [18] > 100 µM | [19] > 100 µM | [53] > 100 µM | [20] > 100 µM | [21] > 100 µM | [22] > 100 µM | [23] > 100 µM | [24] > 100 µM | [26] > 100 µM | [55] > 100 µM | [30] > 100 µM | [31] > 100 µM | [32] > 100 µM | [34] > 100 µM | [35] > 100 µM | [36] > 100 µM | [37] > 100 µM | [38] > 100 µM | [40] > 100 µM | [41] > 100 µM | [43] > 100 µM | [46] > 100 µM | [48] > 100 µM | [50] > 100 µM | [58] > 100 µM
> 100 µM: [5]
